Results from ChEMBL document CHEMBL1201862, “PubChem BioAssay data set” (2004).
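Growth conditions: 96-well plates. Treatment: test compound, 48 hours, 5 concentrations. Analysis: linear interpolation between bracketing concentrations; unreached endpoints set to highest concentration. At the GI50, growth is halved.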 The source made the active and inactive calls. Rule as the data show it: active = GI50 up to about 1.1 µM and inactive = higher.

Tests used:
Assay in all cases: growth of human tumour cells (NCI), 48 h
786-0 = tested on: 786-0
A549 = tested on: A549
BT-549 = tested on: BT-549
CAKI-1 = tested on: CAKI-1
CCRF-CEM = tested on: CCRF-CEM
COLO 205 = tested on: COLO 205
DU-145 = tested on: DU-145
EKVX = tested on: EKVX
HCT-116 = tested on: HCT-116
HCT-15 = tested on: HCT-15
HL-60 = tested on: HL-60
HOP-92 = tested on: HOP-92
HT-29 = tested on: HT-29
IGROV-1 = tested on: IGROV-1
K562 = tested on: K562
KM12 = tested on: KM12
LOX IMVI = tested on: LOX IMVI
M14 = tested on: M14
MDA-MB-231 = tested on: MDA-MB-231
MDA-MB-435 = tested on: MDA-MB-435
MDA-N = tested on: MDA-N
MOLT-4 = tested on: MOLT-4
NCI-H226 = tested on: NCI-H226
NCI-H23 = tested on: NCI-H23
NCI/ADR-RES = tested on: NCI/ADR-RES
OVCAR-4 = tested on: OVCAR-4
OVCAR-5 = tested on: OVCAR-5
OVCAR-8 = tested on: OVCAR-8
PC-3 = tested on: PC-3
RPMI-8226 = tested on: RPMI-8226
RXF 393 = tested on: RXF 393
SF-539 = tested on: SF-539
SK-MEL-28 = tested on: SK-MEL-28
SK-MEL-2 = tested on: SK-MEL-2
SK-MEL-5 = tested on: SK-MEL-5
SN12C = tested on: SN12C
SNB-19 = tested on: SNB-19
SNB-75 = tested on: SNB-75
SR = tested on: SR
SW-620 = tested on: SW-620
T47D = tested on: T47D
U-251 = tested on: U-251
UO-31 = tested on: UO-31

Measured: GI50

C=CCC1(C#N)C(=S)NC2=C(C(=O)CC(C)(C)C2)C1c1ccccc1 (stereo not drawn)
70.1 µM: HCT-15
inactive: 786-0 35.9 µM | A549 33.8 µM | BT-549 66.7 µM | CAKI-1 74.3 µM | CCRF-CEM 83.6 µM | COLO 205 > 100 µM | DU-145 19.2 µM | EKVX 19.2 µM | HCT-116 59.4 µM | HL-60 > 100 µM | HOP-92 35.1 µM | HT-29 34.6 µM | IGROV-1 55.1 µM | K562 82.2 µM | KM12 32.7 µM | LOX IMVI 68.9 µM | M14 59.8 µM | MDA-MB-231 36.7 µM | MDA-MB-435 33 µM | MDA-N 70.6 µM | MOLT-4 74.1 µM | NCI-H226 71.4 µM | NCI-H23 39.9 µM | NCI/ADR-RES 56.9 µM | OVCAR-4 31 µM | OVCAR-5 > 100 µM | OVCAR-8 24 µM | PC-3 32.2 µM | RPMI-8226 52.5 µM | RXF 393 42.7 µM | SF-539 77.8 µM | SK-MEL-28 61.8 µM | SK-MEL-2 46.8 µM | SK-MEL-5 45.6 µM | SN12C 38.5 µM | SNB-19 31 µM | SNB-75 27 µM | SR 50.6 µM | SW-620 > 100 µM | T47D 27.3 µM | U-251 30.9 µM | UO-31 36.4 µM
